# No end group written: not given here.
# Assays:
# [1] = system: E. coli adherence to IPEC-J2 cells; assay: Quantifying adherent bacteria (CFU); type: cell-based, Escherichia coli; conditions: n = 3
# Method: To calculate the number of adherent E. coli, E. coli were cocultured with IPEC-J2 cells in DMEM/high-glucose medium (no penicillin/streptomycin, no FBS). Then, the cells were washed with PBS six times and lysed with 1% Triton X-100 for 20 min at room temperature. Next, 5 μL lysates were plated on MacConkey agar plates overnight. The total number of bacteria was quantified as CFUs.
# F-actin polymerization = assay: Cell immunofluorescence of F-actin (FITC-phalloidin); type: cell-based, porcine; conditions: IPEC-J2 cells; FITC-phalloidin staining, 400×; n = 3
# Method: (§1) To test the expression and location of tight junction proteins (ZO-1, occludin and claudin-1) and the cytoskeleton (F-actin), cell immunofluorescence was used. The IPEC-J2 cells were cultured and became confluent on the slide. After treatment, the cells were washed with PBS three times, fixed with 4% polyoxymethylene for 30 min, and then washed by PBS again three times. For F-actin staining, 0.5% Triton X-100 was added for 20 min. After that, 0.5% bovine serum albumin was added for 1 h, and then the primary antibodies were added and incubated with the cells at 4 °C overnight. The slides were then washed with PBST three times, and the FITC-labeled secondary antibody was added for 2 h. At last, the cell nuclei were stained by using DAPI (Santa Cruz Biotechnology, Dallas, TX, USA). The slides were then observed by using a fluorescence microscope. Primary antibodies including occludin (Abcam, Cambridge, UK), claudin-1 (CST, Danvers, MA, USA) and ZO-1 (Thermo Fisher Scientific, Waltham, MA, USA) were used. For staining F-actin, FITC-phalloidin (Sigma-Aldrich, St. Louis, MI, USA) was used.
# MEK phosphorylation = assay: Western blotting of p-MEK/MEK; type: cell-based, porcine; conditions: IPEC-J2 cells, versus control group, p < 0.01, n = 3
# Method: (§2) The total protein was extracted with lysis buffer. The concentration of protein was tested by using a BCA protein assay kit (Thermo Scientific, Waltham, MA, USA) and mixed with 5× loading buffer. 20 μg protein sample was loaded in each well. The supernatant was then separated by 10% SDS-PAGE and transferred onto a PVDF membrane (Millipore, Burlington, MA, USA). After blocking with 5% skimmed milk powder, the membrane was incubated with the appropriate primary antibodies overnight at 4 °C, followed by incubation with a horseradish peroxidase (HRP)-conjugated secondary antibody for 2 h. Bands were detected using an ECL Western Blotting Substrate (Thermo Scientific, Waltham, MA, USA). Band intensity was quantified using ImageJ software. The primary antibodies including β-actin, p-MEk, MEK, p-ERK, ERK, CDX2 were purchased from Cell Signaling Technology (CST, Danvers, MA, USA).
# ZO-1 protein expression = assay: Western blotting of ZO-1; type: cell-based, porcine; conditions: IPEC-J2 cells, versus control group, n = 3
# Method: as §2
# ERK phosphorylation = assay: Western blotting of p-ERK(1/2)/ERK(1/2); type: cell-based, porcine; conditions: IPEC-J2 cells, versus control group, p < 0.01, n = 3
# Method: as §2
# [2] = system: claudin-1 protein expression; assay: Western blotting of claudin-1; type: cell-based, porcine; conditions: IPEC-J2 cells, versus control group, n = 3
# Method: as §2
# IL-6 mRNA expression = assay: qPCR of IL-6 mRNA in IPEC-J2 cells cocultured with E. coli; type: cell-based, porcine; conditions: IPEC-J2 cells after coculture with E. coli, treatment for 48 h, compared to non-treated cells, n = 6
# Method: (§3) Total RNA was extracted using TRIzol reagent according to the manufacturer’s instructions. Concentration and purity of RNA was checked by using a NanoDrop 2000. cDNA was generated from 1 μg total RNA using a First Strand cDNA Synthesis Kit (Thermo Scientific, Waltham, MA, USA). Quantitative PCR (qPCR) was performed to quantify mRNA expression levels of IL-6, IL-8 and TNF-α relative to that of a housekeeping gene, glyceraldehyde-3-phosphate dehydrogenase (GAPDH) by using SYBR Green mix (ABI) according to the manufacturer’s instructions.
# [3] = system: ZO-1, claudin-1 and occludin membrane distribution; assay: Cell immunofluorescence of tight junction proteins; type: cell-based, porcine; conditions: IPEC-J2 cells, 400×, n = 3
# Method: as §1
# IPEC-J2 cell monolayer [4] = assay: FITC-dextran paracellular permeability assay; type: cell-based, porcine; conditions: 12.5 μg/mL; 48 h and 72 h; FITC-dextran 5 mg/mL apical, 2 h; fluorescence 480/520 nm; p < 0.05; n = 6
# Method: To evaluate the permeability of the monolayer intestinal cells, FITC-dextran was used. FITC-dextran (Sigma-Aldrich, St. Louis, MO, USA) was dissolved in PBS at 5 mg/mL. After the medium was discarded, 200 μL FITC-dextran was added to the apical compartment, and 500 μL PBS was added to the basal compartment and cultured for 2 h. Then, 100 μL liquid from each well was transferred to 96-well plates, and the […] was read at 480 nm excitation and 520 nm emission wavelengths. Then, the content of the FITC-dextran in the basal compartment was calculated using a standard curve.
# [5] = system: occludin protein expression; assay: Western blotting of occludin; type: cell-based, porcine; conditions: IPEC-J2 cells, versus control group, n = 3
# Method: as §2
# TNF-α mRNA expression = assay: qPCR of TNF-α mRNA in IPEC-J2 cells cocultured with E. coli; type: cell-based, porcine; conditions: IPEC-J2 cells after coculture with E. coli, treatment for 48 h, compared to non-treated cells, n = 6
# Method: as §3
# IPEC-J2 cell monolayer [6] = assay: Transepithelial electrical resistance (TER) measurement; type: cell-based, porcine
# Method: To evaluate the barrier integrity of IPEC-J2 cells, the transepithelial resistance (TER) and was measured, and a permeability assay was performed. The initial TER was tested before the cells were seeded. IPEC-J2 cells were then seeded in a Transwell membrane insert ([…], 0.4 μm pore size, Corning) at a density of 7 × 10^5 cells/well. Then, 200 μL and 500 μL medium was added to the apical and basal compartments, respectively. Cecropin A (12.5 μg/mL) was added to the apical and basal compartments. The TER values were measured every day by using an ohm-meter fitted with chopstick electrodes (Millipore ESR-2; Burlington, MA, USA). Before each test, the plates were placed at room temperature for 30 min. The TER was calculated by using the following equation:TER (Ω·cm^2) = (TER − TERinitial) × 0.3
# IL-8 mRNA expression = assay: qPCR of IL-8 mRNA in IPEC-J2 cells cocultured with E. coli; type: cell-based, porcine; conditions: IPEC-J2 cells after coculture with E. coli, treatment for 48 h, compared to non-treated cells, n = 6
# Method: as §3
# IPEC-J2 cells = conditions: MTT; 1.5–12.5 μg/mL, 8 h; compared to control group
# Method: IPEC-J2 cells were cultured at 37 °C in 100% humidity and 5% CO2 conditions with DMEM/F12 (Thermo, Waltham, MA, USA) supplemented with 5% fetal bovine serum (Gibco, Waltham, MA, USA) and 1% penicillin/streptomycin.
# Thiazolyl blue tetrazolium bromide (MTT) was purchased from Sigma-Aldrich (St. Louis, MI, USA). The MTT was dissolved in PBS (5 mg/mL). The cytotoxicity of AMPs to IPEC-J2 cells was tested by using an MTT assay. A density of 1 × 10^5 cells in 180 μL medium per well was seeded in 96-well plates (Corning, New York, NY, USA), and then 20 μL AMPs was added. The final concentrations were 200, 100, 50, 25, 12.5, 6.25, 3.125, were 1.56 μg/mL. After 8 h culture, 20 μL MTT was added, and then the cells were continued to culture for 4 h. The supernatant was discarded, and 150 μL DMSO was added. After 30 min shaking at room temperature, the absorbance was measured at a wavelength of 490 nm. The cell viability was calculated by using the following equation:Cell viability = (ODControl − ODAMP)/ODControl × 100%
# CDX2 protein level = assay: Western blotting of CDX2; type: cell-based, porcine; conditions: IPEC-J2 cells, compared with control group, p < 0.001, n = 3
# Method: as §2
# [7] = system: gram-negative bacterial strains, such as E. coli, Salmonella and Pseudomonas aeruginosa; assay: MIC/MBC test; type: cell-based; conditions: gram-negative strains versus Staphylococcus aureus
# Method: The Escherichia coli ATCC 35401, ATCC 35150, ATCC 25922, and SSI 82000, Pseudomonas aeruginosa ATCC 9027 and ATCC 27853, Salmonella ATCC13312 and ATCC9120, Salmonella typhimurium ATCC 14028, and Staphylococcus aureus ATCC 29213 strains were purchased from Guangdong Culture Collection Center. The Escherichia coli W25K strain was isolated from a piglet with diarrhea as described previously. The strains were cultured in LB medium to logarithmic growth period (OD = 0.5) and then were transferred to Mueller-Hinton Broth (MHB) medium for the minimum inhibitory concentration (MIC) or minimum bactericidal concentration (MBC) test.
# The MIC test was assessed according to the process of the Clinical and Laboratory Standards Institute. The bacterial strains were diluted with MHB medium, and the concentration was 5 × 10^5 CFU/mL. Then, 180 μL bacterial suspension was transferred to 96-well cell plates. […] Then, the bacteria were cultured at 37 °C for 8 h.
Compound,"adherence of E. coli ([1]; IPEC-J2 cells, inhibitor 10 μM for 48 h, compared to cecropin A group)",F-actin polymerization / distribution (F-actin polymerization),MEK phosphorylation (MEK phosphorylation),ZO-1 protein level (ZO-1 protein expression),"E. coli adherence (CFU of adherent bacteria) ([1]; IPEC-J2 cells pretreated with 3.125, 6.25 and 12.5 μg/mL for 48 h)",ERK phosphorylation (ERK phosphorylation),claudin-1 protein level [2],IL-6 mRNA expression (IL-6 mRNA expression),"membrane distribution of ZO-1, claudin-1 and occludin (TJs) [3]",permeability of the IPEC-J2 cell monolayer (4 kDa FITC-dextran in basal compartment) (IPEC-J2 cell monolayer [4]),occludin protein level [5],TNF-α mRNA expression (TNF-α mRNA expression),"TER values (IPEC-J2 cell monolayer [6]; IPEC-J2 monolayer on Transwell, 12.5 μg/mL apical and basal, at 48 h and 72 h, compared to control cells, p < 0.01, n = 6)","TER values (IPEC-J2 cell monolayer [6]; inhibitor experiment (Figure 5), 24 and 48 h, compared with control group, n = 3)",IL-8 mRNA expression (IL-8 mRNA expression),IPEC-J2 cell viability (IPEC-J2 cells),CDX2 protein level (CDX2 protein level),"antibacterial activity against E. coli, Salmonella typhimurium and Pseudomonas aeruginosa compared with Staphylococcus aureus [7]"
O=C(NOCC1CC1)c1ccc(F)c(F)c1Nc1ccc(I)cc1Cl [PD184352],reduced,,,,,,,,,,,,,,,,,
KWKLFKKIEKVGQNIRDGIIKAGPAVAVVGQATQIAK-NH2 (C-terminus assumed) [cecropin A],,much more polymerized at the cell–cell boundary,downregulates,significantly upregulated,reduced E. coli adherence in a dose-dependent manner,downregulates,significantly upregulated,downregulated,much more polymerized at the cell–cell boundary,reduces the permeability,significantly upregulated,downregulated,significantly increased,significantly higher,downregulated,not reduced,upregulated,much higher

# Reference: article PMC6073479, “Cecropin A Modulates Tight Junction-Related Protein Expression and Enhances the Barrier Function of Porcine Intestinal Epithelial Cells by Suppressing the MEK/ERK Pathway” (International Journal of Molecular Sciences, 2018)
